Assay results taken from paper PMC12040169 (PLOS Biology, 2025).

Test: in vitro
Settings: human, hela cells, % viability
Cc1ccc(CN(CCCN2CCOCC2)Cc2ccoc2)o1 [CBK283234] showed a viability at 28.5 h, 10 µM of 81%.
Compound O=C(Nc1cc(-c2nc3ncccc3o2)ccc1Cl)c1ccco1 [CBK269730] has a viability at 28.5 h, 10 µM of 104%.
In the case of O=C(CN1C(=O)C2C3c4ccccc4C(c4ccccc43)C2C1=O)OCC(=O)c1ccc(F)cc1 (centres unmarked) [CBK264861], the viability at 28.5 h, 10 µM is reported as 106%.
COc1ccc(C(=O)Nc2c(OC)cc(F)cc2OC2CCNCC2)cc1 [CBK050294T] gave a viability at 28.5 h, 10 µM of 97%.
For O=C(O)C1CC=CCC1C(=O)Nc1ccc(S(=O)(=O)N2CCCc3ccccc32)cc1 (centres unmarked) [CBK268179], the viability at 28.5 h, 10 µM was 94.8%.
For Cc1ccc(CSCCNS(=O)(=O)c2ccc([N+](=O)[O-])cc2)cc1 [CBK268496], the viability at 28.5 h, 10 µM was 108%.
In the case of O=C(Nc1cccc(-c2nnn[nH]2)c1)c1ccc(C2CCCCC2)cc1 [CBK296712], the viability at 28.5 h, 10 µM is reported as 114%.
COc1ccc2[nH]c3c(c2c1)CN(C(=O)CCC1CCCO1)CC3 (centres unmarked) [CBK281530] showed a viability at 28.5 h, 10 µM of 99.7%.
With O=C(Nc1ccc(C(=O)O)c(O)c1)c1ccc(Br)o1 [CBK270053] the viability at 28.5 h, 10 µM was 87%.
With FC(F)CN1CCN(Cc2ccc(Oc3cnccn3)cc2)CC1 [CBK306399] the viability at 28.5 h, 10 µM was 101%.
Work on Cc1[nH]c(=O)[nH]c(=S)c1C(=O)NCc1ccc(Cl)cc1 [CBK115489] yielded a viability at 28.5 h, 10 µM of 106%.
O=S(=O)(CC(F)(F)F)Nc1ccc(-c2nnn[nH]2)cc1 [CBK154754] showed a viability at 28.5 h, 10 µM of 107%.
Cc1ccc2ncnc(NCCCCCC(=O)O)c2c1 [CBK287256] showed a viability at 28.5 h, 10 µM of 91.4%.
In the case of CC(Oc1ccc2c(c1)OCO2)C(=O)N1CCc2sccc2C1c1ccccc1 (centres unmarked) [CBK285549], the viability at 28.5 h, 10 µM is reported as 91.9%.
With CC1(C)CC(=O)N(C2CCCCC2)C(=O)C1C#N (centres unmarked) [CBK009894] the viability at 28.5 h, 10 µM was 107%.
For NC(=O)CCN(CCC(N)=O)S(=O)(=O)c1ccc(N)cc1 [CBK262134], the viability at 28.5 h, 10 µM was 118%.
Compound CN1CCN(CC(O)COCc2ccc3c(c2)OCO3)CC1 (centres unmarked) [CBK278260C] has a viability at 28.5 h, 10 µM of 81.4%.
For CC(C)(C)OC(=O)n1cnc(CC#N)c1 [CBK000202], the viability at 28.5 h, 10 µM was 83.1%.
For Cc1ccc(S(=O)(=O)N2CCCC(C(=O)O)C2)cc1 (centres unmarked) [CBK100948], the viability at 28.5 h, 10 µM was 88.6%.
Work on COc1ccc(S(=O)(=O)Nc2ccc(S(=O)(=O)Nc3nccs3)cc2)cc1C [CBK266011] yielded a viability at 28.5 h, 10 µM of 101%.
Compound O=C(NCc1cccs1)c1ccc(-n2ccnc2)c(-n2cccc2)c1 [CBK285366] has a viability at 28.5 h, 10 µM of 102%.
CCCS(=O)(=O)NC1CC(C)(C)Cc2c1cnn2-c1ccc(OC)cc1 (centres unmarked) [CBK306730] gave a viability at 28.5 h, 10 µM of 103%.
Work on Cc1ccc(OCC(=O)NC(=S)Nc2cc(C(=O)O)ccc2C)cc1C [CBK264955] yielded a viability at 28.5 h, 10 µM of 92.8%.
With O=C(NCCc1c[nH]cn1)Nc1cccc(C(F)(F)F)c1 [CBK269822] the viability at 28.5 h, 10 µM was 105%.
For CN(C)CCN1CCN(c2ccc(-c3ccc(OC(F)(F)F)cc3)cn2)CC1 [CBK036796], the viability at 28.5 h, 10 µM was 94.7%.
For CC1Oc2ccccc2OC1C(=O)Nc1nnc(Cc2ccccc2)s1 (centres unmarked) [CBK295634], the viability at 28.5 h, 10 µM was 90.5%.
COc1cc(-c2noc(-c3cc(-c4ccccc4)n[nH]3)n2)cc(OC)c1OC [CBK287774] showed a viability at 28.5 h, 10 µM of 92.3%.
In the case of Cc1ccc(N2C(=O)c3ccccc3C2Nc2ccccc2)nc1 (centres unmarked) [CBK113238], the viability at 28.5 h, 10 µM is reported as 101%.
Cc1ccc(N(CC(=O)O)S(=O)(=O)c2ccc(C)cc2)cc1 [CBK262409] gave a viability at 28.5 h, 10 µM of 106%.
For CC(=O)c1ccc(-c2ccc(C(=O)NCCc3ccc(S(N)(=O)=O)cc3)c(N(C)C(C)=O)n2)s1 [CBK076621], the viability at 28.5 h, 10 µM was 91.9%.
CCOC(=O)c1c(C)n(-c2ccccc2)c2ccc(O)c(CN(C)C)c12 [CBK261593C] showed a viability at 28.5 h, 10 µM of 91%.
With Cc1ccccc1CC(=O)N1CCCC1c1n[nH]cc1-c1ccncc1 (centres unmarked) [CBK283431] the viability at 28.5 h, 10 µM was 87.7%.
Cc1cc(NC(=O)C(C)(C)C)nc2c1c(=O)oc1ccccc12 [CBK287443] gave a viability at 28.5 h, 10 µM of 78.7%.
Work on COc1cc(Cl)c(C)cc1NC(=O)C1CC=CCC1C(=O)O (centres unmarked) [CBK296667] yielded a viability at 28.5 h, 10 µM of 94.1%.
In the case of CC(CNC(=O)CCc1cn(C)c2ccccc12)N1CCOCC1 (centres unmarked) [CBK281996], the viability at 28.5 h, 10 µM is reported as 87.4%.
Compound CN(C)CCN1CCN(c2nc(Br)cn3ccnc23)CC1 [CBK037501] has a viability at 28.5 h, 10 µM of 91.3%.
Work on O=C(OCc1nc2cc3ccccc3cc2[nH]1)C1CCCCC1 [CBK018307] yielded a viability at 28.5 h, 10 µM of 94%.
Nc1ccc(OCc2nc3ccccc3n2CC(=O)O)cc1 [CBK270099] gave a viability at 28.5 h, 10 µM of 96%.
With CCN(CC)C(=O)CN1CCCN(c2cc(OCCN3C(=O)CCC3=O)ncn2)CC1 [CBK083266T] the viability at 28.5 h, 10 µM was 102%.
Cc1c(-c2cc(-c3cnn(C)c3C)[nH]n2)cnn1C [CBK288013] showed a viability at 28.5 h, 10 µM of 76%.
N#Cc1cc(Cl)ccc1CN1CCCCC1c1[nH]ncc1C(N)=O (centres unmarked) [CBK304746] gave a viability at 28.5 h, 10 µM of 88.5%.
COc1ccc(C(c2ccccn2)N(C)C(=O)C2CCN(S(=O)(=O)C(C)C)CC2)cc1 (centres unmarked) [CBK060280] showed a viability at 28.5 h, 10 µM of 88.2%.
Work on CS(=O)(=O)Nc1cccc(-c2cnc3[nH]c(=O)n(Cc4cccs4)c3n2)c1 [CBK064708] yielded a viability at 28.5 h, 10 µM of 91%.
Work on FC(F)(F)c1cccnc1OCCN1CCOCC1 [CBK113456] yielded a viability at 28.5 h, 10 µM of 101%.
Work on COc1cc(Br)c(-c2nnn[nH]2)cc1OC [CBK270093] yielded a viability at 28.5 h, 10 µM of 108%.
O=C(N[C@H]1CO[C@H]2[C@@H]1OC[C@@H]2n1cc(-c2ccccc2)nn1)N1CCOCC1 [CBK289503] gave a viability at 28.5 h, 10 µM of 87.7%.
For CC(=O)NCC1CCC2(CCN(c3nc(C)nc(C)c3C)CC2)O1 (centres unmarked) [CBK307404], the viability at 28.5 h, 10 µM was 94.1%.
In the case of O=C(Cn1c(-c2cccs2)cc2cccnc21)N1CCOCC1 [CBK282452], the viability at 28.5 h, 10 µM is reported as 101%.
In the case of COc1ccc(-c2cc(=O)n3cc[nH]c3n2)cc1 [CBK006659], the viability at 28.5 h, 10 µM is reported as 87.6%.
For COc1cc(-c2cc(N3CCN(Cc4cccnc4)CC3)n3nccc3n2)cc(OC)c1OC [CBK037063], the viability at 28.5 h, 10 µM was 95.9%.
COC(=O)NC(O)C(=O)c1cccs1 (centres unmarked) [CBK027755] gave a viability at 28.5 h, 10 µM of 93.8%.
Work on CCN(CC)C(=O)c1cccc(NS(=O)(=O)c2cccc3cccnc23)c1 [CBK038999] yielded a viability at 28.5 h, 10 µM of 66.5%.
With Cc1nc(C(=O)N(C)C(C)c2cc3ccccc3o2)nn1-c1ccc(F)cc1 (centres unmarked) [CBK296657] the viability at 28.5 h, 10 µM was 108%.
COC(=O)CCC(=O)Nc1snnc1-c1ccc(Cl)cc1 [CBK153241] showed a viability at 28.5 h, 10 µM of 99.3%.
O=C(CN1CCC(c2ccc(F)cc2)CC1)N1CCCCC1 [CBK283640] gave a viability at 28.5 h, 10 µM of 101%.
COc1ccc(Cn2nc(NC(=O)c3cn(C)c4ccccc34)c3ccccc32)cc1 [CBK048344] gave a viability at 28.5 h, 10 µM of 57.2%.
O=C(Nc1ccccc1C(=O)O)c1cc(S(=O)(=O)Nc2cccc([N+](=O)[O-])c2)ccc1Cl [CBK263234] gave a viability at 28.5 h, 10 µM of 90.3%.
With COC(=O)c1ccc(N2CCN(Cc3nnnn3C3CC3)C(C)C2)cc1 (centres unmarked) [CBK306129] the viability at 28.5 h, 10 µM was 89.6%.
Compound CCOc1ccc(CNc2ccc(CNc3ncn[nH]3)cc2)cc1 [CBK267617] has a viability at 28.5 h, 10 µM of 91.7%.
With Cc1ccc(Nc2nccc(C3CCCN(Cc4ccc5[nH]ccc5c4)C3)n2)nc1 (centres unmarked) [CBK286122] the viability at 28.5 h, 10 µM was 88%.
Work on COc1ccc(-c2cc[nH]n2)c(OC)c1OC [CBK022957C] yielded a viability at 28.5 h, 10 µM of 82%.
Work on CC(=O)c1ccc(-c2nccnc2N2CCN(c3ccncc3)CC2)s1 [CBK037015] yielded a viability at 28.5 h, 10 µM of 95.8%.
Cc1cc(NC(=O)c2cc3ccccc3o2)nc2c1c(=O)oc1ccccc12 [CBK291256] gave a viability at 28.5 h, 10 µM of 90.2%.
Cc1ccc(-c2nccnc2OC2CCCCC2)c(C)c1 [CBK106983] gave a viability at 28.5 h, 10 µM of 94%.
Compound Clc1ccc(Cn2ncc3c(NCc4cccnc4)ncnc32)cc1 [CBK300478] has a viability at 28.5 h, 10 µM of 94.9%.
